ChEMBL document CHEMBL1128594, “Synthesis and antimalarial activities of 12 beta-allyldeoxoartemisinin and its derivatives” (J Med Chem, 1995)
Values after ≈ are worked out from the molar mass of the structure shown.

Assays:
[1] = tested on: Plasmodium falciparum; experiment: In vitro antimalarial activity against drug-resistant Plasmodium falciparum D6; type: functional, organism-based
[2] = tested on: Plasmodium falciparum; experiment: In vitro antimalarial activity against drug-resistant Plasmodium falciparum W-2; type: functional, organism-based

`C=CC[C@H]1O[C@@H]2O[C@@]3(C)CC[C@H]4[C@H](C)CC[C@@H]([C@H]1C)[C@@]24OO3` was tested, and the IC50 [1] was 1.07 ng/mL (≈ 3.47 nM) and the IC50 [2] was 0.59 ng/mL (≈ 1.91 nM).
Work on `CC[C@H]1O[C@@H]2O[C@@]3(C)CC[C@H]4[C@H](C)CC[C@@H]([C@H]1C)[C@@]24OO3` yielded an IC50 [1] of 1.09 ng/mL (≈ 3.68 nM) and an IC50 [2] of 0.29 ng/mL (≈ 0.978 nM).
With `CCC[C@H]1O[C@@H]2O[C@@]3(C)CC[C@H]4[C@H](C)CC[C@@H]([C@H]1C)[C@@]24OO3` the IC50 [1] was 0.41 ng/mL (≈ 1.32 nM) and the IC50 [2] was 0.16 ng/mL (≈ 0.515 nM).
With `C[C@H]1[C@@H](CCO)O[C@@H]2OC3(C)CC[C@H]4[C@H](C)CC[C@@H]1[C@@]24OO3` (single isomer, unassigned) the IC50 [1] was 2.04 ng/mL (≈ 6.53 nM) and the IC50 [2] was 0.59 ng/mL (≈ 1.89 nM).
Work on `C[C@@H]1CC[C@H]2[C@@H](C)CO[C@@H]3OC4(C)CC[C@@H]1[C@]32OO4` (single isomer, unassigned) [DEOXOARTEMISININ] yielded an IC50 [1] of 1.11 ng/mL (≈ 4.14 nM) and an IC50 [2] of 0.48 ng/mL (≈ 1.79 nM).
Work on `C[C@@H]1CC[C@H]2[C@@H](C)C(=O)O[C@@H]3O[C@@]4(C)CC[C@@H]1[C@]32OO4` [ARTEMISININ] yielded an IC50 [1] of 0.86 ng/mL (≈ 3.05 nM) and an IC50 [2] of 0.32 ng/mL (≈ 1.13 nM).
Compound `CCO[C@H]1O[C@@H]2O[C@@]3(C)CC[C@H]4[C@H](C)CC[C@@H]([C@H]1C)[C@@]24OO3` [ARTEMOTIL] has an IC50 [1] of 0.34 ng/mL (≈ 1.09 nM) and an IC50 [2] of 0.18 ng/mL (≈ 0.576 nM).
